According to patent publication US20080221134A1, “8-ALKYNYLXANTHINES AND DERIVATIVES” (priority 2006, published 2008):
Where two headings read alike, the source gives them in different places.

Tests used:
[1] = target: T1, A2A-adenosine receptor human recombinant (Homo sapiens, UniProt P29274); test: Radioligand binding assay 1, human recombinant A2A adenosine receptor
T1 construct: expressed in transfected cells
Procedure: (§1) Rat brain preparations were used for A1- and A2A adenosine receptor (AR) and human recombinant cell samples for A1-, A2A- and A3 adenosine receptor radioligand binding studies. Affinity and selectivity was tested in displacement experiments with following radioligands: [^3H]CCPA for A1-adenosine receptors, [^3H]MSX-2 for A2A-receptors and [^3H]PSB-11 for A3-receptors. Results of these experiments are depicted in table 2b (human data) and table 2a (rat data). Radioligand binding test systems are e.g. generally described by Muller et al., Curr. Pharm. Des., 1996, 2, 501 and Weyler et al., ChemMedChem 2006, 1, 891 and references cited therein) These documents are incorporated herein by reference.

[2] = target: T2, A1-adenosine receptor human recombinant (Homo sapiens, UniProt P30542); test: Radioligand binding assay 1, human recombinant A1 adenosine receptor; conditions: [3H]CCPA
T2 construct: expressed in transfected cells
T2 sequence (P30542 1-326): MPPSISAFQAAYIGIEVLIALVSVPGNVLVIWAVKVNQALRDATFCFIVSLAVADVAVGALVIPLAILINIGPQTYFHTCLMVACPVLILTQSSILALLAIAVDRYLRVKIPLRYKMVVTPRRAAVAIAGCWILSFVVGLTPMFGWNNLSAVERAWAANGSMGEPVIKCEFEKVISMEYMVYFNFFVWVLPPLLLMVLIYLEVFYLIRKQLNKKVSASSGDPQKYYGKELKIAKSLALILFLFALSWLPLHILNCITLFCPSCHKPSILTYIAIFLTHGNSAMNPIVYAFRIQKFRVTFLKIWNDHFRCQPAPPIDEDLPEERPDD
Procedure: as §1

[3] = target: T3, Rat A2A AR (Rattus norvegicus, UniProt P30543); test: Radioligand binding assay 1, rat A2A adenosine receptor; conditions: rat striatum, [3H]MSX-2
T3 construct: A2A adenosine receptors from rat striatum; from tissue; host or cells: rat striatum
T3 sequence (P30543 whole entry): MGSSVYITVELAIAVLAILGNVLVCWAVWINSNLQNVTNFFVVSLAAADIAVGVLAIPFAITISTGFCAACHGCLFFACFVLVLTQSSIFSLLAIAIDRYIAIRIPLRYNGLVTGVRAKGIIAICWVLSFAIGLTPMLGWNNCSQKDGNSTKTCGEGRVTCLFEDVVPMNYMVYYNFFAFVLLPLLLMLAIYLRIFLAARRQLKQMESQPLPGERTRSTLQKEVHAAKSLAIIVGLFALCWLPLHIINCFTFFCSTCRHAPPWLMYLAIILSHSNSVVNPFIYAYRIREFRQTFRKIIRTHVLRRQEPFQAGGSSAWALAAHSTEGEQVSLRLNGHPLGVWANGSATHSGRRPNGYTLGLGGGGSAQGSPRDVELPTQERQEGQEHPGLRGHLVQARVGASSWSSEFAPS
Procedure: as §1

[4] = target: T4, Rat A1 AR (Rattus norvegicus, UniProt P25099); test: Radioligand binding assay 1, rat A1 adenosine receptor; conditions: rat cortex, [3H]CCPA
T4 construct: Rat brain preparations were used for A1- and A2A adenosine receptor (AR); from tissue; host or cells: rat cortex
T4 sequence (P25099 1-326): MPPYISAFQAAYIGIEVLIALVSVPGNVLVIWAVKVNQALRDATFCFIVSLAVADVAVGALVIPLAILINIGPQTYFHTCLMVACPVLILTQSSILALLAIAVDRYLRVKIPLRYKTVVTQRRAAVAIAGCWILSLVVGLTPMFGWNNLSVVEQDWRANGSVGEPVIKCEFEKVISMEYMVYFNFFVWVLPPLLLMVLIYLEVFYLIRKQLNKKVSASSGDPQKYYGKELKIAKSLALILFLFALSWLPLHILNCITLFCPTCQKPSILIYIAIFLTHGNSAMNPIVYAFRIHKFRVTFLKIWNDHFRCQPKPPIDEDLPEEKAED
Procedure: as §1

[5] = human recombinant, [3H]MSX-2, read-out: A2A-adenosine receptor human recombinant [3H] MSX-2 Ki

T1 sequence (P29274 whole entry): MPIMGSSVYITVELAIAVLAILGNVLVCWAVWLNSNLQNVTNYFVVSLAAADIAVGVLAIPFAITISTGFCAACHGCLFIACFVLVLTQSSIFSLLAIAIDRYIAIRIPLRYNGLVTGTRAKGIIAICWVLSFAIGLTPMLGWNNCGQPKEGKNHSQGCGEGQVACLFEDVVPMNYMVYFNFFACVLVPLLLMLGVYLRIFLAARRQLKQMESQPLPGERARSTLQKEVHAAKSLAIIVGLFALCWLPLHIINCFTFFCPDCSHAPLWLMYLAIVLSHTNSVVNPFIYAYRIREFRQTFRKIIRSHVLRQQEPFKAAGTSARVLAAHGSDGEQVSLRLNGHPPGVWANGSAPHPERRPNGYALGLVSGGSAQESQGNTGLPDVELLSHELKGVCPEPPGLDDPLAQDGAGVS

| Ki [1, 5] | Ki [2] | SMILES | further results |
| --- | --- | --- | --- |
| 0.0322 ± 0.0205 µM | > 1 µM | C#CCn1c(=O)c2c(nc(C#Cc3ccc(OC)c(OC)c3)n2C)n(CC#N)c1=O [drawing 576] | – |
| 0.054 µM | – | C#CCn1c(=O)c2c(nc(C#Cc3ccc(OC)c(OC)c3)n2C)n(C(C)C(C)=O)c1=O (stereo not drawn) [drawing 591] | – |
| 0.0834 ± 0.0265 µM | > 1 µM | C#CCn1c(=O)c2c(nc(C#Cc3ccc(OCC)c(OCC)c3)n2C)n(CC)c1=O [drawing 573] | – |
| 0.0184 ± 0.003 µM | > 1 µM | C#CCn1c(=O)[nH]c2nc(C#Cc3ccc(OC)c(OC)c3)n(C)c2c1=O [drawing 563] | – |
| 0.175 ± 0.044 µM | > 3 µM | C#CCn1c(=O)c2c(nc(C#Cc3cccc(OC)c3)n2C)n(CC(O)CO)c1=O (stereo not drawn) [drawing 569] | – |
| 0.127 ± 0.019 µM | > 1 µM | C#CCn1c(=O)c2c(nc(C#Cc3ccc(OC)c(OC)c3)n2C)n(C(C)C)c1=O [drawing 586] | – |
| 0.0116 ± 0.0021 µM | 1.74 ± 0.546 µM | C#CCn1c(=O)c2c(nc(C#Cc3cccc(OCCCN(C)C)c3)n2C)n(C)c1=O [drawing 558] | – |
| 0.123 ± 0.062 µM | > 1 µM | C#CCn1c(=O)c2c(nc(C#Cc3ccc(OC)c(OC)c3)n2C)n(CCCOC)c1=O [drawing 581] | – |
| – | – | C#CCn1c(=O)c2c(nc(C#Cc3ccccc3)n2C)n(C)c1=O [drawing 552] | Ki ([1]; no full inhibition curve due to limited water-solubility, read-out: A2A-adenosine receptor human recombinant [3H] MSX-2 Ki, calculated by extrapolation): 0.314 ± 0.071 µM |
| 0.423 ± 0.028 µM | > 10 µM | C#CCn1c(=O)c2c(nc(C#Cc3cccc(Cl)c3)n2C)n(C)c1=O [drawing 556] | – |
| 0.058 ± 0.0133 µM | > 1 µM | C#CCn1c(=O)c2c(nc(C#Cc3ccc(OC)c(OC)c3)n2C)n(CCCC#N)c1=O [drawing 582] | – |
| 0.0897 ± 0.0161 µM | – | C#CCn1c(=O)c2c(nc(C#Cc3ccc(OC)c(OC)c3)n2C)n(C)c1=O [drawing 601] | – |
| 0.0843 ± 0.031 µM | > 1 µM | C#CCn1c(=O)c2c(nc(C#Cc3ccc(OC)c(OC)c3)n2C)n(CCC#N)c1=O [drawing 577] | – |
| 0.0563 ± 0.0264 µM | > 1 µM | C#CCn1c(=O)c2c(nc(C#Cc3ccc(OC)c(OC)c3)n2C)n(CC2CC2)c1=O [drawing 590] | – |
| 0.0084 ± 0.0067 µM | > 1 µM | C#CCn1c(=O)c2c(nc(C#Cc3ccc(OC)c(OC)c3)n2C)n(Cc2ccoc2)c1=O [drawing 583] | – |
| 0.608 ± 0.111 µM | > 10 µM | C#CCn1c(=O)c2c(nc(C#Cc3cccc(OC)c3)n2C)n(C)c1=O [drawing 553] | – |
| 0.738 ± 0.146 µM | > 1 µM | C#CCn1c(=O)c2c(nc(C#Cc3ccc(Cl)c(Cl)c3)n2C)n(CC)c1=O [drawing 597] | – |
| 0.0825 µM | – | C#CCn1c(=O)c2c(nc(C#Cc3ccsc3)n2C)n(CC)c1=O [drawing 599] | – |
| 0.0821 ± 0.026 µM | – | C#CCn1c(=O)c2c(nc(C#Cc3cncn3C)n2C)n(CC)c1=O [drawing 600] | – |
| 0.0507 ± 0.0212 µM | – | C#CCn1c(=O)c2c(nc(C#Cc3ccc(OC)c(OC)c3)n2C)n(CCCOP(=O)(O)O)c1=O [drawing 570] | – |
| 0.0356 ± 0.0109 µM | – | C#CCn1c(=O)c2c(nc(C#Cc3cccc(OC)c3)n2C)n(CC=C)c1=O [drawing 571] | – |
| – | – | C#CCn1c(=O)c2c(nc(C#Cc3ccc4c(c3)OCO4)n2C)n(CC)c1=O | Ki [3]: 0.0296 ± 0.0061 µM; Ki [4]: > 1 µM |
| 0.299 ± 0.072 µM | – | C#CCn1c(=O)c2c(nc(C#Cc3cccc(OCCCO)c3)n2C)n(C)c1=O [drawing 596] | – |
| 0.0963 ± 0.0031 µM | – | C#CCn1c(=O)c2c(nc(C#Cc3ccc(OC)c(OC)c3)n2C)n(CCC2CO2)c1=O (stereo not drawn) [drawing 580] | – |
| – | – | C#CCn1c(=O)c2c(nc(C#Cc3ccc(OC)c(OC)c3)n2C)n(CC(F)(F)F)c1=O | Ki [3]: 0.0127 ± 0.0028 µM; Ki [4]: ≥ 1 µM |
| – | – | C#CCn1c(=O)c2c(nc(C#Cc3ccc(OC)c(OC)c3)n2C)n(CC(=O)O)c1=O | Ki [3]: 0.272 ± 0.057 µM; Ki [4]: > 1 µM |
| – | – | C#CCn1c(=O)c2c(nc(C#Cc3ccc(OC)c(OC)c3)n2C)n(CCC#N)c1=O [drawing 501] | Ki [3]: 0.0764 ± 0.0329 µM; Ki [4]: > 1 µM |
| – | – | C#CCn1c(=O)c2c(nc(C#Cc3ccc(OC)cc3)n2C)n(CC)c1=O | Ki [3]: 0.0286 ± 0.0133 µM; Ki [4]: > 1 µM |
| – | – | C#CCn1c(=O)c2c(nc(C#Cc3ccc(OC)c(OC)c3)n2C)n(CCO)c1=O [drawing 499] | Ki [3]: 0.0455 ± 0.0104 µM; Ki [4]: > 1 µM |
| – | – | C#CCn1c(=O)c2c(nc(C#Cc3ccc(OC)c(OC)c3)n2C)n(CCF)c1=O [drawing 518] | Ki [3]: 0.00999 ± 0.0007 µM; Ki [4]: ≥ 1 µM |
